This note sets out measurements from patent US20120270237A9, “METHODS FOR THE IDENTIFICATION OF KINASE INTERACTING MOLECULES AND FOR THE PURIFICATION OF KINASE PROTEINS” (Cellzone AG, priority 2009, published 2012).

Test in all cases: Kinobeads competition binding, HeLa Placenta lysate mix
What all share (design): capturing and identification of kinases from mixed HeLa placenta lysates; endogenous in cells; host or cells: HeLa cells mixed with placenta tissue lysate
Common to all, as to conditions: 10 μM free compound

The target in one assay is SYK (Homo sapiens, UniProt P43405). Here is the method: (§1) To one aliquot of cell lysate 10 μM of the free compound (FIG. 3, CZC31326) was added and allowed to bind to proteins in the lysate. Then the affinity matrix with the immobilized compound was added to capture proteins that were not interacting with the previously added free compound. Beads were separated from the lysate and bead bound proteins were eluted in SDS sample buffer and subsequently separated by SDS-Polyacrylamide gel electrophoresis (FIG. 10). Suitable gel bands were cut out and subjected to in-gel proteolytic digestion with trypsin. The second lysate aliquot was processed identically, however no free compound was added (DMSO solvent control). Peptides originating from samples 1 and 2 were labeled with iTRAQ reagents (iTRAQ 114 and iTRAQ 117) and the combined samples were analyzed with a nano-flow liquid chromatography system coupled online to a tandem mass spectrometer (LC-MS/MS) experiment followed by iTRAQ reporter ion quantification in the MS/MS spectra as described in Example 2.

The target of the next assay is T1, MST1 (Homo sapiens, UniProt Q13043).
T1 sequence (Q13043 1-487): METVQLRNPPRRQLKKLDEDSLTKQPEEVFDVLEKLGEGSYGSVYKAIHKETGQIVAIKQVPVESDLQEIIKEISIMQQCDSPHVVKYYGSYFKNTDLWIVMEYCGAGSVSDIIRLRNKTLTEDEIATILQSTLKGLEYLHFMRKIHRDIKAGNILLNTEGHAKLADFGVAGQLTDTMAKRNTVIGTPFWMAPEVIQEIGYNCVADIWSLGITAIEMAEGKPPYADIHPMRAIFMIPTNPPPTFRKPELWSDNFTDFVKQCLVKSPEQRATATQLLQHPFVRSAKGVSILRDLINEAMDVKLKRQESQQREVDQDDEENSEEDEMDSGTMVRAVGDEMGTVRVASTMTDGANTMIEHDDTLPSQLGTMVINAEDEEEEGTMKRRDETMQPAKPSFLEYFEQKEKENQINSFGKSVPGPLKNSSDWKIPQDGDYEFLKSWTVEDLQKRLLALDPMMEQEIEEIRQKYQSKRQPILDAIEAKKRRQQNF
Here is the method:
as §1

A further assay addresses MLK4 (Homo sapiens, UniProt Q5TCX8). Here is the method: as §1
The next assay has as its target PYK2 (Homo sapiens, UniProt Q14289). As for the experimental part:
as §1

In another assay the target is SLK (Homo sapiens, UniProt Q9H2G2). As for the experimental part: as §1
Sequence of SLK (Q9H2G2 whole entry): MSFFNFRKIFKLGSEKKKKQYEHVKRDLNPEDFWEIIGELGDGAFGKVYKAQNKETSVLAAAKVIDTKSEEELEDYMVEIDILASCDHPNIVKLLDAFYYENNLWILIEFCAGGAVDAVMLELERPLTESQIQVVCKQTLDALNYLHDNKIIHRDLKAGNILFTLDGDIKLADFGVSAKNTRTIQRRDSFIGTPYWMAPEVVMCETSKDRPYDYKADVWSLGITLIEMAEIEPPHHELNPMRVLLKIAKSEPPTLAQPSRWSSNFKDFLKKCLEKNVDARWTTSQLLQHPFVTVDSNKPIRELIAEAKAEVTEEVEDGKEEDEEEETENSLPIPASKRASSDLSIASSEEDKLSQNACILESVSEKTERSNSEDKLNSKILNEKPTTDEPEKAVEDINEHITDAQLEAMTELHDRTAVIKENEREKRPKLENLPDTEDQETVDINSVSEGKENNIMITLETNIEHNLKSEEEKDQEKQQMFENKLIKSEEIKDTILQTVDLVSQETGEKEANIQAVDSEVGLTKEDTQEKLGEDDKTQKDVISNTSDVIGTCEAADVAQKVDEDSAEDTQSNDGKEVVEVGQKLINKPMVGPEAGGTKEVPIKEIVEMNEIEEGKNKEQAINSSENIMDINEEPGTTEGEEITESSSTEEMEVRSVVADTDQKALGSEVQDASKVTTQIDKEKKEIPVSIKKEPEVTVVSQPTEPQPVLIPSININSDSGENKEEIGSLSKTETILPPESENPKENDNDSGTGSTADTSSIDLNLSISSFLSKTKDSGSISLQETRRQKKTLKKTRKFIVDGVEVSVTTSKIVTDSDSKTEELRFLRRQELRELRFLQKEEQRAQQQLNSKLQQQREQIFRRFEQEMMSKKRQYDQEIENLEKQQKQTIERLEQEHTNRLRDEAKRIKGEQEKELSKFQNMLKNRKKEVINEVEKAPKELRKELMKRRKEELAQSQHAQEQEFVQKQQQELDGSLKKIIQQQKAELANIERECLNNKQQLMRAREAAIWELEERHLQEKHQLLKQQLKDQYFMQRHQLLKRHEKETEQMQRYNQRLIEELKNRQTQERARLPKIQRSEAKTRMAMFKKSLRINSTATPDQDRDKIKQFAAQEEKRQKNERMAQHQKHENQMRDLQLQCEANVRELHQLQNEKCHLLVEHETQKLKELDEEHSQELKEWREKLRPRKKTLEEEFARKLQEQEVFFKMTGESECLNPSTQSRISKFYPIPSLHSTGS
The next assay concerns the target T2, PHKg2 (Homo sapiens, UniProt P15735).
T2 sequence (P15735 1-406): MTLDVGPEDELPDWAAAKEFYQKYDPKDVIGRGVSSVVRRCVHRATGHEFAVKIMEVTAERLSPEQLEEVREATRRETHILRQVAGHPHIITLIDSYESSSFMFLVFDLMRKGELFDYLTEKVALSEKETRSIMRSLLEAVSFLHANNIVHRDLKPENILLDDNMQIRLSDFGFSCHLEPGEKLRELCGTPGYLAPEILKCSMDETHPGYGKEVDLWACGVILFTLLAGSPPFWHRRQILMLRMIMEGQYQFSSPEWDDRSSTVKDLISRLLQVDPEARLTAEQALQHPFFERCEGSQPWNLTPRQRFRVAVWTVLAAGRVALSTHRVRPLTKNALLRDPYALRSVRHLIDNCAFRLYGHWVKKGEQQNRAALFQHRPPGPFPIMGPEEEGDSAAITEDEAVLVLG
Here is the method: as §1

In the next assay the target is PKCa (Homo sapiens, UniProt P17252). Here is the method: as §1
In a further assay the target is RSK2 (Homo sapiens, UniProt P51812). Here is the method:
as §1

The target of the next assay is PLK1 (Homo sapiens, UniProt P53350). As for the experimental part:
as §1

In the next assay the target is PKN2 (Homo sapiens, UniProt Q16513). As for the experimental part: as §1
Sequence of PKN2 (Q16513 whole entry): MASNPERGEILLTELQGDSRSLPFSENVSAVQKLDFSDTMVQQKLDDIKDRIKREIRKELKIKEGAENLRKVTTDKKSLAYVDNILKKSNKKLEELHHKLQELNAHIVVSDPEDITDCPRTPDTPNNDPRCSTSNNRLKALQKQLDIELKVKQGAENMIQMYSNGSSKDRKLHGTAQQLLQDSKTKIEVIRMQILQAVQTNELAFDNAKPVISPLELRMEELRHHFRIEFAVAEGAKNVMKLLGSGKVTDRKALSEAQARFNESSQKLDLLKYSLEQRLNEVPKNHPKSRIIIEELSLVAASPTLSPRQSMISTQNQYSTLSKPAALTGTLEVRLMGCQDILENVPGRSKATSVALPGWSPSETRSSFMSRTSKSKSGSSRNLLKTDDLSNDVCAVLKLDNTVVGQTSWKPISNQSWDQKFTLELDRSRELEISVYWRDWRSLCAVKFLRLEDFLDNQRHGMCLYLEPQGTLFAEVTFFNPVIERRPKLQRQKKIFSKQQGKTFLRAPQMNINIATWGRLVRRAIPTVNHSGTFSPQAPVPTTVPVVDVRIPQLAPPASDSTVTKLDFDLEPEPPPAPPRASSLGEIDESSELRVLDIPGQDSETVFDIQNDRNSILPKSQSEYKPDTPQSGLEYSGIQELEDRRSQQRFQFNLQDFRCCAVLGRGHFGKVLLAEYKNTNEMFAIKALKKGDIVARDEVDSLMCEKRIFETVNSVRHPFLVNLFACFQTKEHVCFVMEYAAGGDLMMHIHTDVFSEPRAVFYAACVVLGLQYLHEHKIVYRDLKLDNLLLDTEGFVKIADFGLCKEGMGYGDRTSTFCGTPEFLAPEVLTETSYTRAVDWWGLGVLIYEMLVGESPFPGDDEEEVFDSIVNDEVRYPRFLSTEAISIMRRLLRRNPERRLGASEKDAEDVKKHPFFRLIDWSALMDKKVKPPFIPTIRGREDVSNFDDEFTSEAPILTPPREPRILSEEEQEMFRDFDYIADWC

As a reminder, the inhibition is the percentage by which the read-out fell short of the control.

Sequence of PLK1 (P53350 whole entry): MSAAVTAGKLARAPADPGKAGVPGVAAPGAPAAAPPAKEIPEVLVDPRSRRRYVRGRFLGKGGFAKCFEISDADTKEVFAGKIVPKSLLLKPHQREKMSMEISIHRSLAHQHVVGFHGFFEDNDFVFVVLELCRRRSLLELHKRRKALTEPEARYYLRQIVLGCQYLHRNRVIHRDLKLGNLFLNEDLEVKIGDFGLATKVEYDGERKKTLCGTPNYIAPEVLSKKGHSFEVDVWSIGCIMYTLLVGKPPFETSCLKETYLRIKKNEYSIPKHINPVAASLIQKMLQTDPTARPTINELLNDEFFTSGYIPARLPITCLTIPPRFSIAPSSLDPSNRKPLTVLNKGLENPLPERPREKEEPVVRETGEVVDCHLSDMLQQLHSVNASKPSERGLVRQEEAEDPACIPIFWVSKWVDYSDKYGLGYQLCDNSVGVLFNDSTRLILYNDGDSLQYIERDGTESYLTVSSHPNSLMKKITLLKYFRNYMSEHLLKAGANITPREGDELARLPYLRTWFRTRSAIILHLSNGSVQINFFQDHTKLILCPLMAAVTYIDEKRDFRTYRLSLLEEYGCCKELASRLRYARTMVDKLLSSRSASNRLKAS
Sequence of MLK4 (Q5TCX8 whole entry): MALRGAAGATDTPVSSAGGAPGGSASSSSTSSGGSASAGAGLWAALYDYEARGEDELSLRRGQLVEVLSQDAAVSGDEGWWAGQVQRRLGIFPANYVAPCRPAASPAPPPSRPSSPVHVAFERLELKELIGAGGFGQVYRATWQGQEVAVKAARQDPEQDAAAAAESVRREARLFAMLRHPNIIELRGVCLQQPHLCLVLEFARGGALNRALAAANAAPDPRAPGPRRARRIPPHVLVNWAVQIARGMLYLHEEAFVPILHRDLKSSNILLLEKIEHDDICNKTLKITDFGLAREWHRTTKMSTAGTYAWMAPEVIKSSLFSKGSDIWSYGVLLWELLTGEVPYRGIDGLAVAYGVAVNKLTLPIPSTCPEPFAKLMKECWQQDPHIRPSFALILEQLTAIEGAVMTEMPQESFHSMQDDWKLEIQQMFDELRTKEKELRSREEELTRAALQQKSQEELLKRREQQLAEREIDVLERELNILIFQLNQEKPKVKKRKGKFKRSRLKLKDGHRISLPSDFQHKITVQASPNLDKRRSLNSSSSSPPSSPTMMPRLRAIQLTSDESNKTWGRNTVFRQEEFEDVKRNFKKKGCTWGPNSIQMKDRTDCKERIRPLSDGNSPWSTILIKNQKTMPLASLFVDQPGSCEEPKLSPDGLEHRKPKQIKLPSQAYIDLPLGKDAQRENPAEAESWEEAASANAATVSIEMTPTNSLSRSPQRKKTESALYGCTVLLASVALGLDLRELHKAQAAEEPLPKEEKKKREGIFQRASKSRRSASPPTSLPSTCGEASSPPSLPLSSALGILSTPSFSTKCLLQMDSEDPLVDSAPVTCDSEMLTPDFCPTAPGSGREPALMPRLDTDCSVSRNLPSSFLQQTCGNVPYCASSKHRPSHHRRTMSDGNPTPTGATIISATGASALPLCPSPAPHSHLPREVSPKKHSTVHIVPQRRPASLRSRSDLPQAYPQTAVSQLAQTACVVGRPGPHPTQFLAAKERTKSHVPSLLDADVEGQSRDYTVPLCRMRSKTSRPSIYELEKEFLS

Take `CS(=O)(=O)Nc1ccccc1Nc1nc(Nc2cccc(OCCN)c2)ncc1Cl` [CZC31326, N-(2-(2-(3-(2-aminoethoxy)phenylamino)-5-chloropyrimidin-4-ylamino)phenyl)methanesulfonamide]: the Competition % at SYK amounted to 93.4%; at MST1, 94.6%. Also, the inhibition at 10 µM at MLK4 is 88.9%; on PYK2 it was 92.7%; at SLK, 93.2%; on PHKg2, 89.9%; on PKCa, 94.9%; on RSK2 it was 96%. Also, the inhibition at 10 µM on PLK1 amounted to 94.7%; at PKN2, 94%.
